Patent publication US11535632B2, “Solid forms of an S1P-receptor modulator” (ESCAPE Bio, Inc., priority 2019, dated 2022)

What was measured:
Format in all cases: physicochemical
[1] = Competitive slurries of Form B and C in process relevant solvents; conditions: 72 hours, start Form B + C
Description: Determination of the relative stabilities of Form B and Form C was undertaken to identify which material was more thermodynamically stable in process relevant solvents. As a suspected solvate was isolated from experiments where DMAC was used as a solvent, only DMSO and acetic acid were determined to be appropriate process solvents. Combinations of these solvents with relevant antisolvents were therefore selected for the competitive slurry experiments.
Compound 1 (from Example 2) was dispensed into HPLC vials. To these, 1 ml of selected solvents was subsequently added to give a suspension. Materials were slurried for 72 hours at 90° C., 50° C. or 25° C. with 500 rpm stirring. Material was subsequently isolated by centrifugation and analyzed by XRPD.

[2] = Solubility and metastable zone width by Crystal 16; conditions: for metastable zone width: 0.5° C./min
Description: A Crystal 16 crystallization system (Technobis, NL) was used to determine the solubility and metastable zone of the material as a function of temperature. Slurries of the API, in different overall concentrations, were prepared by adding a known amount of solid to a known amount of chilled solvent (between 0.5 and 1.5 ml) and stirred at 350 rpm using a magnetic bar. The saturation temperature was measured through cycles of heating and cooling from 20 to 90° C. at 0.5° C./min.
Upon increasing the temperature, the solid completely dissolved and the suspension became a clear solution such that the light transmission reached its maximum value. This temperature was assigned as the clear point, which was assumed to coincide with the saturation temperature. Then, by cooling the solution at a rate of 0.5° C./min, the temperature at which particles first formed was detected by a decrease in the light transmission. This was assigned as the cloud point. The points were fitted by a Van′t Hoff equation and the difference between the cloud and the clear points defined the metastable zone width (MSZW) of the system. The instrument control software was Crystallization Systems and the data were analyzed using Crystal Clear and Microsoft Excel.
The solubility of compound 1 (various masses) in DMAC and DMSO (1 ml) was analyzed on the Crystal 16 (between 25-90° C. for DMSO and 0-90° C. for DMAC). A heating/cooling rate of 0.5° C./min and a stirring rate of 300 rpm was used for all samples. The resulting turbidity/temperature plots were analyzed to obtain solubility curves and determine the metastable zone width. Any precipitated solids were isolated by filtration and analyzed by XRPD.

Water activity study = conditions: 4 days, start Form A + Form B
Description: About 15 mg of Form A and 15 mg of Form B were added to the saturated solutions of different water activities and equilibrated at 25° C. and 50° C. for 4 days, respectively. The resulting suspensions were filtered, and the solid parts (wet cake) were investigated by XRPD to determine the polymorph.
According to XRPD results, Form B was obtained in methanol/water with water activity (a.w.) ranging from 0.1 to 0.9 at 25° C., as shown in FIGS. 20A-20B. At 50° C., Form B was obtained in methanol/water with a.w. ≥0.2, whereas a mixture of Form A and Form B was obtained in a.w. […] The water activity of the binary solvent system was calculated based on UNIFAC method (UNIQUAC Functional-group Activity Coefficients).

XRPD analysis after slurrying ([1]; Acetic acid:H2O (1:1), 25° C.): Form B
XRPD analysis after slurrying ([1]; Acetic acid:H2O (1:1), 50° C.): Form B
XRPD analysis after slurrying ([1]; Acetic acid:H2O (1:1), 90° C.): Form B
XRPD analysis after slurrying ([1]; Acetic acid:MeCN (1:3), 25° C.): Form B
XRPD analysis after slurrying ([1]; Acetic acid:MeCN (1:3), 50° C.): Form B
XRPD analysis after slurrying ([1]; Acetic acid:MeCN (1:3), 90° C.): Form B
XRPD analysis after slurrying ([1]; DMSO, 25° C.): Form B
XRPD analysis after slurrying ([1]; DMSO, 50° C.): Poorly crystalline
XRPD analysis after slurrying ([1]; DMSO, 90° C.): poorly crystalline Form A
XRPD analysis after slurrying ([1]; DMSO:H2O (1:1), 25° C.): Form B
XRPD analysis after slurrying ([1]; DMSO:H2O (1:1), 50° C.): Form B
XRPD analysis after slurrying ([1]; DMSO:H2O (1:1), 90° C.): Form B
metastable zone width ([2]; DMAC, 0-90° C.): ca. 30 °C
metastable zone width ([2]; DMSO, 25-90° C.): ca. 30 °C
solubility ([2]; neat acetic acid): very high solubility
XRPD of solid after equilibration (Water activity study; Methanol/water (20:80, v/v) a.w. = 0.9, 25° C.): Form B
XRPD of solid after equilibration (Water activity study; Methanol/water (20:80, v/v) a.w. = 0.9, 50° C.): Form B
XRPD of solid after equilibration (Water activity study; Methanol/water (57:43, v/v) a.w. = 0.7, 25° C.): Form B
XRPD of solid after equilibration (Water activity study; Methanol/water (57:43, v/v) a.w. = 0.7, 50° C.): Form B
XRPD of solid after equilibration (Water activity study; Methanol/water (69:31, v/v) a.w. = 0.6, 25° C.): Form B
XRPD of solid after equilibration (Water activity study; Methanol/water (69:31, v/v) a.w. = 0.6, 50° C.): Form B
XRPD of solid after equilibration (Water activity study; Methanol/water (77:23, v/v) a.w. = 0.5, 25° C.): Form B
XRPD of solid after equilibration (Water activity study; Methanol/water (77:23, v/v) a.w. = 0.5, 50° C.): Form B
XRPD of solid after equilibration (Water activity study; Methanol/water (84:16, v/v) a.w. = 0.4, 25° C.): Form B
XRPD of solid after equilibration (Water activity study; Methanol/water (84:16, v/v) a.w. = 0.4, 50° C.): Form B
XRPD of solid after equilibration (Water activity study; Methanol/water (89:11, v/v) a.w. = 0.3, 25° C.): Form B
XRPD of solid after equilibration (Water activity study; Methanol/water (89:11, v/v) a.w. = 0.3, 50° C.): Form B
XRPD of solid after equilibration (Water activity study; Methanol/water (93:7, v/v) a.w. = 0.2, 25° C.): Form B
XRPD of solid after equilibration (Water activity study; Methanol/water (93:7, v/v) a.w. = 0.2, 50° C.): Form B
XRPD of solid after equilibration (Water activity study; Methanol/water (97:3, v/v) a.w. = 0.1, 25° C.): Form B
XRPD of solid after equilibration (Water activity study; Methanol/water (97:3, v/v) a.w. = 0.1, 50° C.): Form A + B
Compound: O=C(O)[C@H]1C[C@@H](N2CCc3oc(-c4ccc(OCc5ccc(Cl)cc5)cc4)nc3C2)C1 [Compound 1, (1s,3s)-3-(2-(4-((4-chlorobenzyl)oxy)phenyl)-6,7-dihydrooxazolo[4,5-c]pyridin-5(4H)-yl)cyclobutane-1-carboxylic acid]
